The values below are quoted from earlier work in US8623409B1, “Clonidine formulation” (Tris Pharma Inc., priority 2010, dated 2014).

For the data set the following is noted: plasma level; see US patent application 2008/0152709.

The structures appear in SMILES notation.

As for `Clc1cccc(Cl)c1NC1=NCCN1` [clonidine, N-(2,6-dichlorophenyl)-4,5-dihydro-1H-imidazol-2-amine], the “minimum effective dose for clonidine use as an anti-hypertensive agent” value is listed as 200 pg/mL.
